Laboratory results taken from patent US20210386743A1, “USE OF PDE9 INHIBITORS FOR TREATMENT” (The Johns Hopkins University, priority 2018, published 2021).
“Also recorded” adds a separate entry of the source. Like-named read-outs stand apart in the source and are kept apart here.

Legend:
[1] = system: OVX+HFD+TAC female mice (C57BL/6N); assay: Echocardiography of cardiac function and structure in OVX+HFD+TAC female mice; format: in vivo, mouse; conditions: OVX+HFD+TAC females, vs vehicle; for left ventricular hypertrophy (LV Mass) / ejection fraction (EF) / fractional shortening (FS): serial echo, drug started 1 week after TAC; for left ventricular hypertrophy (LV Mass): oral gavage 20 mg/kg twice daily, 20 mg/kg
Description: (§1) All animals were fed a high fat diet (HFD) consisting of 60% kcal derived from fat was fed to both male and female C57BL6N mice for 3 months. Mice were divided into two groups: 1) Controls with intact ovaries; 2) Ovariectomized (Ovx) mice. Mice were assigned to receive trans-aortic constriction (TAC) or sham surgery after 3 months of HFD, and further randomized to placebo vehicle and PDE9-I (PDE9 inhibitor oral gavage 20 mg/kg twice daily) (FIG. 1). Comparison of Group 1 and 2 tests the efficacy of PDE9-I to ameliorate and/or reverse HFD and pressure-overload pathophysiology independent of sex hormone status.
(§2) Changes in cardiac function and structure were measured using echocardiogram, histopathology and markers of cardiac stress (Nppa Gene expression by RT-qPCR). For qPCR, RNA is isolated from left ventricular myocardium (Trizol Reagent, Invitrogen), reverse transcribed to cDNA (High Capacity RNA-to-cDNA Kit, Applied Biosystems, Life Technologies), and undergoes PCR amplification using TaqMan probes for atrial natriuretic peptide (Nppa) (mouse #Mm01255747_g1, rat #Rn00664637_g1). The threshold cycle value was determined using the crossing point method, and samples normalized to the GAPDH for each run. Echocardiography was performed in conscious mice using serial M-mode transthoracic echocardiography (VisualSonics Vevo 2100, 18-38 MHz transducer; SanoSite Inc.). Images were obtained and analyzed by an individual blinded to the animal condition.
(§3) Female mice (C57BL/6N) were placed on a 60% fat diet starting at age 5-weeks. Two weeks later, there were randomized to receive bilateral oophorectomy or sham surgery. Cardiac imaging for ventricular function and morphometry was determined 2 months later. Between 8-11 weeks after ovariectomy, the mice underwent a second surgical procedure introducing a mild aortic constriction (TAC) in the transverse aorta to increase pressure load on the heart. The purpose of the TAC procedure was to stimulate the heart to synthesize natriuretic peptide, which is important for the generation of cyclic GMP which PDE9 regulates. Serial echocardiograms were obtained, and starting 1 week after TAC, mice were further randomized to receive vehicle control or a PDE9 inhibitor (PF-7943). Intact mouse metabolic studies, fat/lean mass determinations, and heart function were assessed. At terminal study, tissues were harvested for molecular signaling.

[2] = system: OVX+HFD+TAC female mice (C57BL/6N); assay: Whole body metabolism by indirect calorimetry (CLAMS metabolic cage) in OVX+HFD+TAC female mice; format: in vivo, mouse; conditions: OVX+HFD+TAC females, vs vehicle; for oxygen consumption (VO2): normalized to body mass
Description: as §1
(§4) Whole body metabolism: Indirect calorimetry was used to assess metabolic parameters in live animals using the OxyMAX Comprehensive Lab Animal Monitoring System (Columbus Instruments, Columbus Ohio). Basic metabolic rate (VO2 consumption), VCO2 release and energy expenditure (EE) were measured by indirect calorimetry in high-fat-fed OVX mice groups treated with (Drug) and without PDE9 inhibitor (Control). Respiratory exchange ratio (RER) was calculated from VCO2 release-to-VO2 consumption ratio (VCO2 release/VO2 consumption). CLAMS cabinet was used to measure oxygen consumption rate at 22° C. (VO2), CO2 emission, respiratory exchange ratio, heat production, food consumption (g consumed per day), and total and ambulatory activity per day.
as §3
RER is calculated from VCO2/VO2 ratio. […] Even if fat mass is assumed to contribute only 15% of total metabolic activity relative to lean mass, these differences remain significant (data not shown). […] P values are for unpaired t-tests between groups.

male HFD+TAC mice [3] = assay: Whole body metabolism (indirect calorimetry) in male HFD+TAC mice; format: in vivo, mouse
Description: as §1, §4
(§5) In a third experiment, we exposed male mice of a similar starting age (5 weeks) to the same HFD protocol, and then same TAC protocol. As before, mice were randomized to either vehicle control or active PDE9-inhibitor starting 1 week after the TAC procedure. FIG. 11.

[4] = system: C57BL6/N female mice with intact ovaries, HFD+TAC; assay: Whole body metabolism (indirect calorimetry) in HFD+TAC female mice with intact ovaries; format: in vivo, mouse; conditions: females with intact ovaries, HFD + pressure overload
Description: as §1, §4
(§6) In a second experiment, we examined the impact of PDE9 inhibition on female mice (C57BL6/N) subjected to HFD+TAC, but without ovariectomy and thus had normal estrogen levels.

male HFD+TAC mice [5] = assay: Body weight and body composition in male HFD+TAC mice; format: in vivo, mouse; conditions: listed as PDE9-inhibitor
Description: as §1
(§7) Body composition: total fat mass, lean mass, and water content was determined by quantitative nuclear magnetic resonance (Echo-MRI®). In brief, after 20 weeks on the HFD, total body fat and lean body mass were assessed non-invasively by EchoMRI instrument. The analyzer delivers precise body composition measurements of fat, lean, free water, and total water masses in live animals weighing up to 100 grams. Conscious mice were placed in a constraint tube that was then inserted into the EchoMRI for a period of approximately 30 s and these measurements obtained.
In a third experiment, we exposed male mice of a similar starting age (5 weeks) to the same HFD protocol, and then same TAC protocol. […]

[6] = system: female mice, high fat diet induced obesity plus mild pressure stress; assay: Cardiac disease in obese (HFD) female mice with mild pressure stress on the heart; format: in vivo, mouse; conditions: females; high fat diet induced obesity and metabolic syndrome + mild pressure stress on the heart
Text: Our laboratory has studied the impact of PDE9 inhibition on the heart, in particular in male mice subjected to pressure overload stress to induced cardiac hypertrophy, dysfunction, and pathological fibrosis. Over the past 1.5 years, we have turned to females, and in particular added the impact of high fat diet induced obesity and metabolic syndrome. This is then combined with a mild pressure stress on the heart to stimulate production of natriuretic peptides and some hypertrophy of the heart muscle. […] However, there was minimal impact on peripheral body weight, metabolism, or fat mass in these studies.

[7] = system: OVX+HFD+TAC female mice (C57BL/6N); assay: Body weight and body composition (EchoMRI) in OVX+HFD+TAC female mice; format: in vivo, mouse; conditions: OVX+HFD+TAC females
Description: as §1, §7, §3
After 20 weeks on the HFD+ 8 wks mTAC, total body fat and lean body mass were assessed non-invasively by EchoMRI.

[8] = system: OVX+HFD+TAC female mice (C57BL/6N); assay: Fasting blood markers of metabolic syndrome and liver histology in OVX+HFD+TAC female mice; format: in vivo, mouse; conditions: for hepatic fat accumulation (liver histology): OVX females on HFD, vs no additional therapy; for fasting blood glucose / fasting blood total cholesterol / fasting total blood triglycerides: OVX+HFD+TAC females, end of study
Description: as §1, §3
Multiple biomarkers of metabolic syndrome and fat accumulation in the liver were improved in OVX+HFD+TAC female mice by PDE9 inhibition (FIG. 8). Data are shown at end-of study for fasting blood glucose, cholesterol, triglycerides, and histology of the liver.

[9] = system: C57BL6/N female mice with intact ovaries, HFD+TAC; assay: Body weight and body composition in HFD+TAC female mice with intact ovaries; format: in vivo, mouse; conditions: females with intact ovaries, vs vehicle
Description: as §1, §7, §6

male HFD+TAC mice [10] = assay: Cardiac remodeling (echocardiography, Nppa RT-qPCR) in obese male HFD+TAC mice; format: in vivo, mouse; conditions: vs vehicle; for natriuretic peptide (Nppa) gene expression in myocardium: RT-qPCR; for cardiac hypertrophy (LV mass): drug started 1 week after TAC
Description: as §1, §2, §5

[11] = system: female mice, models of heart disease; conditions: cited from earlier work
[12] = end of study, listed as PDE9 inhibitor

For `C[C@@H]1CN(Cc2ncccn2)C[C@H]1c1nc2c(cnn2C2CCOCC2)c(=O)[nH]1` [PF 04447943], the cardiac output ([1]; end of study) was “restoration towards normal control values”, the ejection fraction ([1]; end of study) was “restoration towards normal control values” and the “ventricular end-diastolic volume (Volume, d)” value ([1]; end of study) was “restoration towards normal control values”. The “ventricular end-systolic volume (Volume, s)” value ([1]; end of study) was “restoration towards normal control values”, the “early to late atrial (E/A) filling” value [1, 12] was “restored; also recorded: restoration towards normal control values” and the “isovolumic ventricular relaxation time (IVRT)” value [1, 12] was “restored; also recorded: restoration towards normal control values”. The “left ventricular hypertrophy (LV Mass)” value [1] was “reduced left ventricular hypertrophy”, the “left ventricular hypertrophy (LV Mass)” value ([1]; listed as PDE9 inhibitor) was “reduced LV mass” and the “ejection fraction (EF)” value [1] was “greater”. The “fractional shortening (FS)” value [1] was “greater fractional shortening”, the “ejection fraction (EF)” value ([1]; listed as PDE9 inhibitor) was “improved FS and EF” and the “fractional shortening (FS)” value ([1]; listed as PDE9 inhibitor) was “improved FS”. For the same compound, the “oxygen consumption (VO2)” value ([2]; listed as PDE9I) was “increases total oxygen consumption normalized to body mass”, the “oxygen consumption (VO2)” value ([2]; listed as PDE9 inhibitor) was “increases in oxygen consumption” and the “carbon dioxide generation (VCO2)” value ([2]; normalized to total body mass) was “increases”. The “calculated energy expenditure (heat)” value [2] was “increased”, the “respiratory exchange ratio (RER)” value [2] was “not significantly altered” and the CO2 generation (male HFD+TAC mice [3]) was “did not display consistent changes”. For the same compound, the RER (male HFD+TAC mice [3]) was “did not display consistent changes”, the “energy expenditure (heat generation)” value (male HFD+TAC mice [3]; listed as PDE9-inhibitor) was “did not demonstrate increases; also recorded: did not display consistent changes” and the “oxygen consumption (metabolic rate)” value (male HFD+TAC mice [3]; listed as PDE9-inhibitor) was “did not demonstrate increases; also recorded: did not display consistent changes”. The calculated energy expenditure [4] was “do not show any changes”, the CO2 production ([4]; listed as PDE9-I) was “no difference” and the overall oxygen consumption ([4]; listed as PDE9-I) was “no difference”. For the same compound, the respiratory exchange ratio ([4]; listed as PDE9-I) was “no difference”, the CO2 production ([4]; listed as PDE9i) was “do not show any changes” and the overall oxygen consumption ([4]; listed as PDE9i) was “do not show any changes”. The respiratory exchange ratio ([4]; listed as PDE9i) was “do not show any changes”, the “total body weight / body mass” value (male HFD+TAC mice [5]) was “only borderline altered; also recorded: trend towards reduced body weight” and the “total fat mass / body fat” value (male HFD+TAC mice [5]) was “significant reduction in total fat mass; also recorded: decline in body fat”. The cardiac disease [6] was “can indeed ameliorate cardiac disease”, the “relative weight reduction compared to OVX mice on normal diet” value [7] was about 30% and the “absolute lean body mass” value ([7]; EchoMRI) was “no change in absolute lean body mass”. For the same compound, the percent body fat ([7]; EchoMRI) was “reduced percent body fat”, the “percent lean body mass” value ([7]; EchoMRI) was “increased percent lean body mass” and the fat weight ([7]; EchoMRI, 20 weeks HFD + 8 wks mTAC) was “significant decline in fat weight”. For the same compound, the body weight decline ([7]; PDE9 inhibitor treatment) was about 20%, the “hepatic fat accumulation (liver histology)” value ([8]; listed as PDE9-I) was “markedly reduced” and the “hepatic fat accumulation (liver histology)” value ([8]; listed as PDE9 inhibitor) was “marked reduction of fat accumulation in the liver”. The fasting blood glucose ([8]; listed as PDE9-I) was “reduced”, the “fasting blood total cholesterol” value ([8]; listed as PDE9-I) was “reduced” and the “fasting total blood triglycerides” value ([8]; listed as PDE9-I) was “reduced”. For the same compound, the fasting blood glucose ([8]; listed as PDE9 inhibitor) was “reduced towards normal control levels”, the “fasting blood total cholesterol” value ([8]; listed as PDE9 inhibitor) was “reduced towards normal control levels” and the “fasting total blood triglycerides” value ([8]; listed as PDE9 inhibitor) was “reduced towards normal control levels”. For the same compound, the fat mass ([9]; listed as PDE0-I) was “no significant change”, the lean mass ([9]; listed as PDE0-I) was “no significant change” and the percent fat mass ([9]; listed as PDE0-I) was “no significant change”. For the same compound, the percent lean mass ([9]; listed as PDE0-I) was “no significant change”, the total body weight ([9]; listed as PDE0-I) was “no significant change” and the fat mass ([9]; listed as PDE9 inhibitor) was “did not have any alteration”. The lean mass ([9]; listed as PDE9 inhibitor) was “did not have any alteration”, the percent fat mass ([9]; listed as PDE9 inhibitor) was “did not have any alteration” and the percent lean mass ([9]; listed as PDE9 inhibitor) was “did not have any alteration”. The total body weight ([9]; listed as PDE9 inhibitor) was “did not have any alteration”, the “natriuretic peptide (Nppa) gene expression in myocardium” value (male HFD+TAC mice [10]; listed as PDE9-I) was “reduced” and the “natriuretic peptide (Nppa) gene expression in myocardium” value (male HFD+TAC mice [10]; listed as PDE9-inhibitor) was “reduced by active therapy”. For the same compound, the “cardiac hypertrophy (LV mass)” value (male HFD+TAC mice [10]; listed as PDE9-inhibitor) was “reduced left heart mass”, the “cardiac hypertrophy (LV mass)” value (male HFD+TAC mice [10]; listed as PDE9 inhibitor) was “significantly lowers cardiac hypertrophy” and the ejection fraction (male HFD+TAC mice [10]; listed as PDE9-inhibitor) was “increases in both fractional shortening and ejection fraction”. The fractional shortening (male HFD+TAC mice [10]; listed as PDE9-inhibitor) was “increases in both fractional shortening and ejection fraction”, the ejection fraction (male HFD+TAC mice [10]; listed as PDE9 inhibitor) was “improves cardiac function” and the fractional shortening (male HFD+TAC mice [10]; listed as PDE9 inhibitor) was “improves cardiac function”.

In the case of `CCCc1nn(C)c2c(=O)[nH]c(-c3cc(S(=O)(=O)N4CCN(C)CC4)ccc3OCC)nc12` [sildenafil], the “treatment of heart disease” value ([11]; female mice with ovaries, several models of heart disease) is listed as “successfully treated”, the “treatment of heart disease” value ([11]; female mice, ovaries first removed) is listed as “totally ineffective” and the “treatment of heart disease” value ([11]; female mice, ovaries removed, exogenous estrogen replacement) is listed as “rescued”.
